Assay results reported in US20250375471A1, “HEPARANASE INHIBITORS AND METHODS OF USE” (The Board of Regents of the University of Oklahoma, priority 2022, published 2025).
Entries after “also recorded” stand apart in the source; their conditions may differ.

Columns and labels:
[1] = background; cited from earlier work
[2] = target: T1, HIT antibody complex (Platelet Factor 4 and antibody) (Homo sapiens, UniProt P02776)
T1 sequence (P02776 32-101): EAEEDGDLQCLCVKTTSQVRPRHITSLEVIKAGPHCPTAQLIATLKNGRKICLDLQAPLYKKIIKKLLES
Experimental: ELISA methodology was used to measure the bound antibody as measured by absorbance (at 415 nm) of the product derived from a chromogenic substrate by the enzyme on the secondary antibody probe. […] Heparin derivatives treated to reduce their anticoagulant activity (non-anticoagulant heparin (NACH) or Roneparstat (Rone)) were also tested in the HIT assay.

[3] = target: T2, Recombinant human heparanase (Homo sapiens, UniProt Q9Y251); experiment: Heparanase challenge (PAGE, Stains-All detection); assay type: biochemical; settings: heparanase 73 ng, sTestan 180 ng, 24 hours, pH 5, 30° C.
T2 construct: purchased R&D Systems; Minneapolis, MN
T2 sequence (Q9Y251 158-543 limits assumed): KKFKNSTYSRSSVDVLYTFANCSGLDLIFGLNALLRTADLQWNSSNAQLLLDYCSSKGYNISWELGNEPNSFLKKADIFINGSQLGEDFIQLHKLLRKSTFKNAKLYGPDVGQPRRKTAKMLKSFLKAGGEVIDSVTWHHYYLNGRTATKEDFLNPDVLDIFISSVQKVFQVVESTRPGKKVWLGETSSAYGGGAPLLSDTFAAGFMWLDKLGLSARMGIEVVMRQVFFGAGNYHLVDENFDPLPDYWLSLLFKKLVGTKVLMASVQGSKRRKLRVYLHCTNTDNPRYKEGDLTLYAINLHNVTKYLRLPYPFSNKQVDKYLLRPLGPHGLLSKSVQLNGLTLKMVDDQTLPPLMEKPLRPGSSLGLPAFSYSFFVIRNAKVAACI
T2 sequence (Q9Y251 36-109 limits assumed): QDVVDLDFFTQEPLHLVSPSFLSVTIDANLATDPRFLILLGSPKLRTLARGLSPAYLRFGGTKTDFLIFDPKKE
Experimental: The reactions were analyzed by polyacrylamide gel electrophoresis (20% gels, 1×TBE) and Stains-All detection.

[4] = target: T2, Recombinant human heparanase; experiment: Gel-based heparanase enzyme inhibition assay, fluorescent synthetic O-sulfated heparosan substrate; assay type: biochemical
Source text: (§1) A gel-based assay was used to monitor the catalytic action of recombinant human heparanase (R&D Systems; Minneapolis, MN) on polysaccharide substrates. In these assays, fluorescent chains were monitored for cleavage; the disappearance of the parental substrate band is readily noticeable. Each chain contains multiple, overlapping heparanase cut sites so there is a gradual decrease in molecular weight over time. This simple, defined assay directly monitors the digestion of polysaccharides (i.e., glycans>˜20 monosaccharide units) that approximate naturally occurring substrates.
(§2) Two types of substrates were employed to follow heparanase activity: (i) a fluorescein end-labeled synthetic O-sulfated O-linked heparosan or (ii) polyacrylamide gel electrophoretically-purified rhodamine-tagged HS. Heparanase (1.3 ng/μl final) was incubated with substrate (synthetic, 57 ng/μl; HS, 3.3 ng/μl) for various times (typically ˜0.2-5 h) in 50 mM sodium acetate, pH 5, 1 mg/ml acetylated bovine serum albumin (Promega; Madison, WI) at 30° C. Aliquots of reactions were analyzed by polyacrylamide gel electrophoresis (2 μl of reaction/lane; 20% gels, 1×TBE) and fluorescence imaging (5-120 sec exposures; ChemiDoc MP). Then the overall size range of the polysaccharide fragments was followed by Stains-All detection.

[5] = target: T2, Recombinant human heparanase; experiment: Gel-based heparanase enzyme inhibition assay, natural heparan sulfate (HS) substrate; assay type: biochemical; settings: various substrate to inhibitor ratios, 30 min time-point
Source text: as §1, §2

Molecule: CC(C)CCC[C@@H](C)[C@H]1CC[C@H]2[C@@H]3CC[C@H]4C[C@@H](O[C@@H]5O[C@H](COS(=O)(=O)O)[C@@H](O[C@H]6O[C@H](COS(=O)(=O)O)[C@@H](O[C@H]7O[C@H](COS(=O)(=O)O)[C@@H](O[C@H]8O[C@H](COS(=O)(=O)O)[C@@H](OS(=O)(=O)O)[C@H](OS(=O)(=O)O)[C@H]8OS(=O)(=O)O)[C@H](OS(=O)(=O)O)[C@H]7OS(=O)(=O)O)[C@H](OS(=O)(=O)O)[C@H]6OS(=O)(=O)O)[C@H](OS(=O)(=O)O)[C@H]5OS(=O)(=O)O)CC[C@]4(C)[C@H]3CC[C@]12C [PG545]
- cell toxicity [1]: lacks significant anticoagulant activity and cell toxicity

Molecule: Roneparstat
- HIT complex reactivity (competition with plate-bound heparin) [2]: less reactive

Molecule: heparin
- HIT complex reactivity (competition with plate-bound heparin) [2]: competed well

Molecule: sulfated or sulfonated testosteronan [sTestan]
- digestion/cleavage by human heparanase [3]: recalcitrant to the action of heparanase; also recorded: recalcitrant to digestion by heparanase
- fold more active on a molar basis than the heparosan substrate [4]: ≥ 100 fold
- heparanase inhibitor potency compared with generic Roneparstat ([4]; FIG. 7): similarly potent; also recorded: potent competitive inhibitor of human heparanase similar to a known heparanase inhibitor
- inhibition of heparanase cleavage of fluorescent sulfo-O-linked heparosan substrate ([4]; titration of inhibitor, 15-min time point, PAGE): inhibited the digestion of the substrate; also recorded: competitive inhibitor of heparanase
- inhibition of heparanase digestion of natural HS substrate [5]: protecting natural HS from human heparanase digestion
